Data reported in patent US20250197375A1, “PYRIMIDINES AND METHODS OF THEIR USE” (Kineta, Inc., priority 2021, published 2025).
pIC50: −log10 of the molar value. Read-outs that look alike come from different tables or passages of the source.

What was measured:
[1] = tested on: FAB1 TDP-43 yeast strain; experiment: Propidium iodide viability assay in FAB1 TDP-43 control yeast strain; assay type: cell-based; conditions: for FAB1 TDP-43 (active/inactive): FAB1 TDP-43 yeast model
Procedure: Viability Assay. A control yeast strain with the wild-type yeast FAB1 gene and TDP-43 (“FAB1 TDP-43”, carries empty pAG416 plasmid), and the “PIKFYVE TDP-43” yeast strain, were assessed for toxicity using a propidium iodide viability assay. Both yeast strains were transferred from solid CSM-ura/2% glucose agar plates into 3 mL of liquid CSM-ura/2% glucose media for 6-8 hours at 30° C. with aeration. Yeast cultures were then diluted to an optical density at 600 nm wavelength (OD600) of 0.005 in 3 mL of CSM-ura/2% raffinose and grown overnight at 30° C. with aeration to an OD600 of 0.3-0.8. Log-phase overnight cultures were diluted to OD600 of 0.005 in CSM-ura containing either 2% raffinose or galactose and 150 µL dispensed into each well of a flat bottom 96-well plates. Compounds formulated in 100% dimethyl sulfoxide (DMSO) were serially diluted in DMSO and 1.5 µL diluted compound transferred to the 96-well plates using a multichannel pipet. Wells containing DMSO alone were also evaluated as controls for compound effects. Tested concentrations ranged from 15 µM to 0.11 µM. Cultures were immediately mixed to ensure compound distribution and covered plates incubated at 30° C. for 24 hours in a stationary, humified incubator.
(§1) Upon the completion of incubation, cultures were assayed for viability using propidium iodide (PI) to stain for dead/dying cells. A working solution of PI was made where, for each plate, 1 µL of 10 mM PI was added to 10 mL of CSM-ura (raffinose or galactose). The final PI solution (50 µL/well) was dispensed into each well of a new round bottom 96-well plate. The overnight 96-well assay plate was then mixed with a multichannel pipet and 50 µL transferred to the PI-containing plate. This plate was then incubated for 30 minutes at 30° C. in the dark. A benchtop flow cytometer (Miltenyi MACSquant) was then used to assess red fluorescence (B2 channel), forward scatter, and side scatter (with following settings: gentle mix, high flow rate, fast measurement, 10,000 events). Intensity histograms were then gated for “P-positive” or “PI-negative” using the raffinose and galactose cultures treated with DMSO as controls. The DMSO controls for raffinose or galactose-containing cultures were used to determine the window of increased cell death and this difference set to 100. All compounds were similarity gated and then compared to this maximal window to establish the percent reduction in PI-positive cells.

[2] = tested on: PIKFYVE TDP-43 yeast strain; experiment: Propidium iodide viability assay in PIKFYVE TDP-43 yeast strain; assay type: cell-based; conditions: for PIKfyve TDP-43 (active/inactive): PIKFYVE TDP-43 yeast model; for pIC50: Saccharomyces cerevisiae, PIKFYVE TDP-43 yeast strain, reduction in PI-positive cells, 15 to 0.11 μM, 24 hours
From the text: Generation of TDP-43 yeast model expressing human PIKfyve. Human PIKFYVE (“entry clone”) was cloned into pAG416GPDccdB (“destination vector”) according to standard Gateway cloning protocols (Invitrogen, Life Technologies). […] Lithium acetate/polyethylene glycol-based transformation was used to introduce the above PIKFYVE plasmid into a BY4741 yeast strain auxotrophic for the ura3 gene and deleted for two transcription factors that regulate the xenobiotic efflux pumps, a major efflux pump, and FAB1, the yeast ortholog of PIKFYVE (MATa, snq2::KILeu2; pdr3::Klura3; pdr1::NATMX; fab1::G418^R, his3; leu2; ura3; met15; LYS2+) (FIG. 2). Transformed yeast were plated on solid agar plates with complete synthetic media lacking uracil (CSM-ura) and containing 2% glucose. Individual colonies harboring the control or PIKFYVE TDP-43 plasmids were recovered. A plasmid containing wild-type TDP-43 under the transcriptional control of the GAL1 promoter and containing the hygromycin-resistance gene as a selectable marker was transformed into the fab1::G418^R pAG416GPD-PIKFYVE yeast strain (FIG. 1). Transformed yeast were plated on CSM-ura containing 2% glucose and 200 µg/mL G418 after overnight recovery in media lacking antibiotic. Multiple independent isolates were further evaluated for cytotoxicity and TDP-43 expression levels.
Viability Assay. A control yeast strain with the wild-type yeast FAB1 gene and TDP-43 (“FAB1 TDP-43”, carries empty pAG416 plasmid), and the “PIKFYVE TDP-43” yeast strain, were assessed for toxicity using a propidium iodide viability assay. Both yeast strains were transferred from solid CSM-ura/2% glucose agar plates into 3 mL of liquid CSM-ura/2% glucose media for 6-8 hours at 30° C. with aeration. […] Log-phase overnight cultures were diluted to OD600 of 0.005 in CSM-ura containing either 2% raffinose or galactose and 150 µL dispensed into each well of a flat bottom 96-well plates. […] Wells containing DMSO alone were also evaluated as controls for compound effects. […] Cultures were immediately mixed to ensure compound distribution and covered plates incubated at 30° C. for 24 hours in a stationary, humified incubator.
as §1

[3] = molecular target: full-length human PIKFYVE (Homo sapiens (Human), UniProt Q9Y2I7, L932S/Q1183K/Q995L/S1033A/S696N/T998S); experiment: PIKfyve Biochemical Assay (ADP-Glo Kinase assay, GST-PIKFYVE); conditions: for IC50: ADP-Glo, 1 hour at room temperature, 10 μM to 3 nM in duplicate, read-out: PIKfyve Biochemistry IC50 (μM)*
Chain of full-length human PIKFYVE (Q9Y2I7 whole entry S696N/L932S/Q995L/T998S/S1033A/Q1183K): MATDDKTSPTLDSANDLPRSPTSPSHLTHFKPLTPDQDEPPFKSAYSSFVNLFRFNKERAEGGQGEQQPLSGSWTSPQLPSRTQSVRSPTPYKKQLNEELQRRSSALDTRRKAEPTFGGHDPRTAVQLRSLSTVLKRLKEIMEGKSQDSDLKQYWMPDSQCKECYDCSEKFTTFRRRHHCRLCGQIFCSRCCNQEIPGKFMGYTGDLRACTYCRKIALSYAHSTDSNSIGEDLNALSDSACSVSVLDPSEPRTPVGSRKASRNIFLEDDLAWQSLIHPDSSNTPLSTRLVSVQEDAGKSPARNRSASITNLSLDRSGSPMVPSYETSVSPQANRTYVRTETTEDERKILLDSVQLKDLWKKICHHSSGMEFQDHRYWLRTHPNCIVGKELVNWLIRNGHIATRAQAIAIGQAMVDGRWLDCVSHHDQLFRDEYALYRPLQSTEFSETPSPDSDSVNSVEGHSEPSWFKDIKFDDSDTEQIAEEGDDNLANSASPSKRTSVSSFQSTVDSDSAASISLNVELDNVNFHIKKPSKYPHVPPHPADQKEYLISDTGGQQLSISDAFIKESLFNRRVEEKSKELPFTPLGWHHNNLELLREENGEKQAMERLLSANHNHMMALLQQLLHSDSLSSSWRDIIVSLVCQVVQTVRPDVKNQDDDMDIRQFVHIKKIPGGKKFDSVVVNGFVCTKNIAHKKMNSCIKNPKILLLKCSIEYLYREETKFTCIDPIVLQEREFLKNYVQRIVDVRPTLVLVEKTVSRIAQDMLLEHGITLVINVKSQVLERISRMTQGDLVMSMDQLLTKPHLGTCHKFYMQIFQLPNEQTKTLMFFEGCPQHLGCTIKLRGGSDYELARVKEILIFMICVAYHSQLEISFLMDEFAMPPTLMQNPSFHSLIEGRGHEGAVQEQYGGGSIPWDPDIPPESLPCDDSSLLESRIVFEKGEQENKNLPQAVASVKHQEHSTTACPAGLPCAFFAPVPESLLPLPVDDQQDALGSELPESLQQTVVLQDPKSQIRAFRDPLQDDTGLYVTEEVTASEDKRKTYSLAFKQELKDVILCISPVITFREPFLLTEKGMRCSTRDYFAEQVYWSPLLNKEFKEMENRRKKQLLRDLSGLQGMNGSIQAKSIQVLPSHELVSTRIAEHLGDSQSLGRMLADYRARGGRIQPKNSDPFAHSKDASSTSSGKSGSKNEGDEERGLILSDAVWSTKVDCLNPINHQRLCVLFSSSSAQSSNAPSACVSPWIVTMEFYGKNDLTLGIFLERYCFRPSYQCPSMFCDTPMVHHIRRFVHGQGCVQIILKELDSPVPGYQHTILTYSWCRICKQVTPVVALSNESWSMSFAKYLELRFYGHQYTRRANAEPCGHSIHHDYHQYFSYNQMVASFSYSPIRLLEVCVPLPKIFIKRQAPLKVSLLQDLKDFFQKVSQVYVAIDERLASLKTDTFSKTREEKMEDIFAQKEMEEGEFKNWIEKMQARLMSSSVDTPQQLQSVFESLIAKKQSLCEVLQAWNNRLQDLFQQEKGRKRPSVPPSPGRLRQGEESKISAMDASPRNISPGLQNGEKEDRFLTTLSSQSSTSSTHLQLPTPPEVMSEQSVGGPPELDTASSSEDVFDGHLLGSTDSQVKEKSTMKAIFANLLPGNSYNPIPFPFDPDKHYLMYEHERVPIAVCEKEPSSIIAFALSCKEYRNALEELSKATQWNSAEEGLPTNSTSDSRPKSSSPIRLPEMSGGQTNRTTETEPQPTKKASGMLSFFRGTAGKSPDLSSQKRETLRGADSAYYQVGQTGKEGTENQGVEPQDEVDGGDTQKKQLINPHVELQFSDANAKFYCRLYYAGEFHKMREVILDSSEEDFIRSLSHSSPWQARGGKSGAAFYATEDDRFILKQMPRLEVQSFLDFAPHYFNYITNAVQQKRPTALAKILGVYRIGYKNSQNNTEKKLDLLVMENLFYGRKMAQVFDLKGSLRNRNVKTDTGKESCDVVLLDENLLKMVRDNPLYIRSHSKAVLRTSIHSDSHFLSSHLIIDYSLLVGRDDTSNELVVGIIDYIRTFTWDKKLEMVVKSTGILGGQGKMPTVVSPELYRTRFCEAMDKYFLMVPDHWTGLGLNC
Procedure: PIKfyve Biochemical Assay. The biochemical PIKFyve inhibition assays were run by Cama Biosciences according to proprietary methodology based on the Promega ADP-Glo™ Kinase assay. […] GST-PIKFYVE was purified by using glutathione sepharose chromatography and used in an ADP-Glo™ Kinase assay (Promega). Reactions were set up by adding the test compound solution, substrate solution, ATP solution and kinase solution, each at 4× final concentrations. Reactions were prepared with assay buffer (50 mM MOPS, 1 mM DTT, pH7.2), mixed, and incubated in black 384 well polystyrene plates for 1 hour at room temperature. ADP-Glo™ reagent was then added for 40 minutes, followed by kinase detection reagent for an additional 40 minutes. The kinase activity was evaluated by detecting relative light units on a luminescence plate reader. Samples were run in duplicate from 10 μM to 3 nM. […] IC50 values were calculated from concentration versus percent inhibition curves by fitting to a four-parameter logistic curve.
The biochemical PIKFyve inhibition assays were run by Cama Biosciences according to proprietary methodology based on the Promega ADP-Glo™ Kinase assay. […] GST-PIKFYVE was purified by using glutathione sepharose chromatography and used in an ADP-Glo™ Kinase assay (Promega).
Reactions were set up by adding the test compound solution, substrate solution, ATP solution and kinase solution, each at 4× final concentrations. Reactions were prepared with assay buffer (50 mM MOPS, 1 mM DTT, pH7.2), mixed, and incubated in black 384 well polystyrene plates for 1 hour at room temperature. ADP-Glo™ reagent was then added for 40 minutes, followed by kinase detection reagent for an additional 40 minutes. The kinase activity was evaluated by detecting relative light units on a luminescence plate reader. Samples were run in duplicate from 10 uM to 3 nM. […] IC50 values were calculated from concentration vs % inhibition curves by fitting to a four-parameter logistic curve.

[4] = molecular target: PIKfyve (Homo sapiens (Human), UniProt Q9Y2I7); experiment: PIKfyve EEA1 Assay (endosomal vesicle enlargement, high content imaging in U2OS cells); assay type: cell-based; conditions: 3 hours of treatment, activity relative to maximal APY0201 activity
Chain of PIKfyve (Q9Y2I7 whole entry): as the sequence (Q9Y2I7 whole entry S696N/L932S/Q995L/T998S/S1033A/Q1183K) above, with N696S, S932L, L995Q, S998T, A1033S, K1183Q counted along it
Procedure: PIKfyve EEA1 Assay. Genetic or pharmacological disruption of PIKfyve activity results in enlargement of endosomal vesicles. This enlargement was utilized as a surrogate readout of PIKFyve inhibition for routine triage of PIKfyve inhibitors. U2OS cells grown in 96-well assay plates were treated with compound diluted in DMEM media containing 10% fetal bovine serum. After 3 hours of treatment, cells were fixed with paraformaldehyde, permeabilized with 0.2% Triton-X in phosphate buffered saline and stained against EEA1. During the secondary antibody staining, cells were also stained with CellMask™ Deep Red and Hoechst to detect cytoplasms and nuclei respectively. Endosomal structures were visualized using a high content imager at 40× magnification. Images were analyzed using a linear classifier algorithm integrating EEA1 spot size, intensity and texture trained on images of cells treated with the potent reference compound APY0201. Compound activity was calculated by subtracting the DMSO signal and calculating percentage activity relative to maximal APY0201 activity. IC50 values were then calculated from concentration versus percent inhibition data by logistic regression.

Row | SMILES | FAB1 TDP-43 (active/inactive) [1] | PIKfyve TDP-43 (active/inactive) [2] | pIC50 [2] | other results
1 | Cc1cccc(/C=N/Nc2cc(N3CC4CC3CO4)n3nc(-c4ccncc4)cc3n2)c1 (centres unmarked) | Inactive | Active |  | 
2 | Cn1c(-c2ccncc2)nc2c(N3CCOCC3)ncnc21 | Inactive | Inactive |  | 
3 | CN(C)c1cc(N2CCOCC2)n2nc(-c3ccncc3)cc2n1 | Inactive | Inactive |  | 
4 | N#Cc1cc(N2CCOCC2)n2nc(-c3ccncc3)cc2n1 | Inactive | Inactive |  | pIC50 ([3]; ADP-Glo with full-length PIKfyve, read-out: PIKfyve IC50): < 5.00
5 | Cc1cccc(/C=N/Nc2cc(N3CCOCC3)nc(OCCc3ccc(CN)cc3)n2)c1 |  |  | 5.95 | 
6 | c1ccc(-c2cccc(-c3cc(N4CCOCC4)n4nc(-c5ccncc5)cc4n3)n2)cc1 |  |  | 6.64 | 
7 | Oc1cc(-c2ccccc2)nn1-c1cc(N2CCOCC2)n2nc(-c3ccncc3)nc2n1 |  |  | 6.16 | 
8 | Oc1cc(C2CCOCC2)nn1-c1cc(N2CCOCC2)n2nc(-c3ccncc3)cc2n1 |  |  | 5.04 | 
9 | Cc1cccc(/C=N/Nc2nc(N3CCOCC3)c3ncccc3n2)c1 |  |  | 5.09 | 
10 | c1ccc(-c2ccnc(-c3cc(N4CCOCC4)nc(OCc4ccncc4)n3)n2)cc1 |  |  | 5.84 | 
11 | c1ccc(N2CCc3c(OCc4cccnc4)nc(N4CCOCC4)nc32)cc1 |  |  | 5.57 | 
12 | Fc1cccc(-c2ccnn2-c2nc(N3CCOCC3)c3ncccc3n2)c1 |  |  | 5.24 | 
13 | Cc1cccc(/C=N/Nc2cc(N3CCOCC3)n3nc(-c4ccncc4)cc3n2)c1 [APY0201] |  |  |  | viable cells (propidium iodide-negative population) ([1]; FAB1 TDP-43, across a range of compound concentrations (only 0.23 μM is shown), FIG. 5): no increase in viable cells; population of propidium iodide-positive dead cells ([2]; PIKFYVE TDP-43 model, 0.23 μM, FIG. 6): reduced the population of propidium iodide-positive dead cells; viability ([2]; PIKFYVE TDP-43 model, concentrations ranging from 0.5 mM to less than 100 nM): increased viability
14 | Cn1c(=O)c2c(Nc3ccncc3)nc(N3CCOCC3)nc2c2cc(-n3cccn3)ccc21 [Compound 65, 6-methyl-2-morpholino-9-pyrazol-1-yl-4-(4-pyridylamino)pyrimido[5,4-c]quinolin-5-one] |  |  |  | IC50 [3]: 0.01 to 0.1 µM; IC50 [4]: 1 to 10 µM
15 | Cn1ccc(-c2cccc(-c3nc(N4CCOCC4)nc(Nc4ccncc4)c3-c3ncco3)c2)n1 [Compound 74, 6-[3-(1-methylpyrazol-3-yl)phenyl]-2-morpholino-5-oxazol-2-yl-N-(4-pyridyl)pyrimidin-4-amine] |  |  |  | IC50 [3]: 0.01 to 0.1 µM; IC50 [4]: 0.1 to 1 µM
16 | Cc1cccc(/C=N/Nc2cc(N3CCOCC3)n3nc(-c4ccncc4)cc3n2)c1 [drawing 190] | Inactive | Active |  | 
17 | Cc1cccc(/C=N/Nc2nc(N3CCOCC3)c3nc(-c4ccncc4)n(C)c3n2)c1 [drawing 192] | Inactive | Active |  | 
18 | Cc1cccc(/C=N/Nc2nc(N3CCOCC3)c3nc(-c4ccncc4)n(C)c3n2)c1 [drawing 206] |  |  | 5.33 | 
